Measurements published in ChEMBL document CHEMBL3865792, “Antioxidant and antitumor activity of trolox, trolox succinate, and α-tocopheryl succinate conjugates with nitroxides” (Eur J Med Chem, 2016).

How the values were obtained:
[1] = Genotoxicity in Escherichia coli PQ37 expressing lacZ gene assessed as ratio of inducible beta-galactosidase activity to alkaline phosphatase activity at 30 mM after 2 hrs by SOS-chromotest relative to control; type: toxicity; settings: Escherichia coli PQ37 cells expressing lacZ gene, read-out: FC
[2] = system: Salmonella typhimurium; assay: Genotoxicity in Salmonella typhimurium TA102 harboring […] mutant assessed as frequency of reversion from histidine auxotrophy to prototrophy at 30 mM after 48 hrs by Ames test (reference value: 209 +/- 10 No _unit); type: toxicity, organism-based; settings: salmonella enterica subsp. enterica serovar typhimurium, 30000 µM
[3] = system: Salmonella enterica subsp. enterica serovar Typhimurium; assay: Antioxidant activity in Salmonella typhimurium TA102 harboring […] mutant assessed as inhibition of t-BuO2H-dependant mutant formation at 0.3 uM preincubated with compound followed by t-BuO2H addition after 48 hrs by Ames test; type: functional
[4] = system: Salmonella enterica subsp. enterica serovar Typhimurium; assay: Antioxidant activity in Salmonella typhimurium TA102 harboring […] mutant assessed as inhibition of t-BuO2H-dependant mutant formation at 3 uM preincubated with compound followed by t-BuO2H addition after 48 hrs by Ames test; type: functional
[5] = system: Salmonella enterica subsp. enterica serovar Typhimurium; assay: Antioxidant activity in Salmonella typhimurium TA102 harboring […] mutant assessed as inhibition of t-BuO2H-dependant mutant formation at 30 uM preincubated with compound followed by t-BuO2H addition after 48 hrs by Ames test; type: functional
[6] = Cytotoxicity against human MCF7 cells assessed as reduction in cell viability after 72 hrs by MTT assay; type: functional, cell-based; settings: MCF7, 72 h
[7] = Cytotoxicity against human RPMI8226 cells assessed as reduction in cell viability after 72 hrs by MTT assay; type: functional, cell-based; settings: RPMI-8226, 72 h
[8] = Cytotoxicity against human HepG2 cells assessed as reduction in cell viability after 72 hrs by MTT assay; type: functional, cell-based; settings: HepG2, 72 h
[9] = Cytotoxicity against human CEM13 cells assessed as reduction in cell viability after 72 hrs by MTT assay; type: functional, cell-based; settings: CEM13, 72 h
[10] = Cytotoxicity against human U937 cells assessed as reduction in cell viability after 72 hrs by MTT assay; type: functional, cell-based; settings: U-937, 72 h
[11] = Cytotoxicity against human MT4 cells assessed as reduction in cell viability after 72 hrs by MTT assay; type: functional, cell-based; settings: MT4, 72 h
[12] = Cytotoxicity against mouse LMTK cells assessed as reduction in cell viability after 72 hrs by MTT assay; type: toxicity
[13] = Cytotoxicity against hamster AG17-1 cells assessed as reduction in cell viability after 72 hrs by MTT assay; type: toxicity, cell-based, Cricetulus griseus; settings: Chinese hamster
[14] = Cytotoxicity against human MCF7 cells assessed as reduction in cell viability at 300 uM after 72 hrs by MTT assay; type: functional; settings: MCF7, 72 h
[15] = Cytotoxicity against human HepG2 cells assessed as reduction in cell viability at 300 uM after 72 hrs by MTT assay; type: functional; settings: HepG2, 72 h
[16] = Cytotoxicity against human CEM13 cells assessed as reduction in cell viability at 300 uM after 72 hrs by MTT assay; type: functional; settings: CEM13, 72 h
[17] = Cytotoxicity against mouse LMTK cells assessed as reduction in cell viability at 300 uM after 72 hrs by MTT assay; type: toxicity; settings: read-out: INH
[18] = Ratio of IC50 for human MCF7 cells to concentration causing antioxidant activity in Salmonella typhimurium TA102 harboring […] mutant; type: functional
[19] = Ratio of IC50 for human RPMI8226 cells to concentration causing antioxidant activity in Salmonella typhimurium TA102 harboring […] mutant; type: functional, RPMI-8226
[20] = Ratio of IC50 for human HEPG2 cells to concentration causing antioxidant activity in Salmonella typhimurium TA102 harboring […] mutant; type: functional
[21] = Ratio of IC50 for human CEM13 cells to concentration causing antioxidant activity in Salmonella typhimurium TA102 harboring […] mutant; type: functional
[22] = Ratio of IC50 for human MT4 cells to concentration causing antioxidant activity in Salmonella typhimurium TA102 harboring […] mutant; type: functional
[23] = Ratio of IC50 for human U937 cells to concentration causing antioxidant activity in Salmonella typhimurium TA102 harboring […] mutant; type: functional, U-937
[24] = Genotoxicity in Escherichia coli PQ37 expressing lacZ gene assessed as ratio of inducible beta-galactosidase activity to alkaline phosphatase activity at 3 mM after 2 hrs by SOS-chromotest relative to control; type: toxicity; settings: Escherichia coli PQ37 cells expressing lacZ gene, read-out: FC
[25] = Cytotoxicity against human RPMI8226 cells assessed as reduction in cell viability at 300 uM after 72 hrs by MTT assay; type: functional; settings: RPMI-8226, 72 h
[26] = Cytotoxicity against hamster AG17-1 cells assessed as reduction in cell viability at 300 uM after 72 hrs by MTT assay; type: toxicity, cell-based, Cricetulus griseus; settings: Chinese hamster, read-out: INH

Row | SMILES | Activity [2] | inhibition [3] | inhibition [4] | inhibition [5] | IC50 [6] | IC50 [7] | IC50 [8] | IC50 [9] | IC50 [10] | IC50 [11] | IC50 at 72 h [12] | IC50 at 72 h [13] | inhibition at 300 µM [14] | inhibition at 300 µM [15] | cytotoxicity at 72 h, 300 µM [17] | Ratio [18] | Ratio [19] | Ratio [20] | Ratio [21] | Ratio [22] | other results
1 | Cc1c(C)c2c(c(C)c1O)CCC(C)(C(=O)NCC1CC(C)(C)N([O])C1(C)C)O2 (stereo not drawn) | 225 | 26% | 21.5% | 17.7% | > 300 µM | 70 µM | > 300 µM | > 300 µM | 134 µM | 231 µM | 300 µM | 192 µM | 34% | 38% | 25% | 100 - 1000 | 100 - 1000 | 100 - 1000 | 100 - 1000 | 100 - 1000 | fold induction at 2 h, 30000 µM [1]: 1; inhibition at 300 µM [16]: 32%; Ratio [23]: 100 - 1000
2 | CC1(C)CC(NC(=O)CCC(=O)O)CC(C)(C)N1[O] | 211 | 36% | 49% | 41% | > 300 µM | > 300 µM | > 300 µM | > 400 µM | 170 µM | > 400 µM | > 300 µM | > 300 µM | 20% | 0% | 18% | 100 - 1000 | 100 - 1000 | 100 - 1000 | 100 - 1000 | 100 - 1000 | fold induction at 2 h, 3000 µM [24]: 1.3; inhibition at 300 µM [25]: 12%; cytotoxicity at 72 h, 300 µM [26]: 0%; Ratio [23]: 100 - 1000
3 | Cc1c(C)c2c(c(C)c1O)CCC(C)(C(=O)O)O2 (stereo not drawn) [TROLOX] | 230 | 8.8% | 14.5% | 4.7% | > 300 µM | > 300 µM | > 300 µM | > 300 µM | 300 µM | 200 µM | > 300 µM | > 300 µM | 5% | 14% | 0% | – | – | – | – | – | fold induction at 2 h, 3000 µM [24]: 1; inhibition at 300 µM [25]: 0%; inhibition at 300 µM [16]: 37%; cytotoxicity at 72 h, 300 µM [26]: 0%
4 | CC1(C)CC(NC(=O)CCC(=O)O)C(C)(C)N1[O] (stereo not drawn) | 199 | 38% | 48% | 52% | > 300 µM | > 300 µM | > 300 µM | > 400 µM | 241 µM | > 400 µM | > 300 µM | > 300 µM | 17% | 0% | 0% | 100 - 1000 | 100 - 1000 | 100 - 1000 | 100 - 1000 | 100 - 1000 | fold induction at 2 h, 3000 µM [24]: 1.2; inhibition at 300 µM [25]: 44%; cytotoxicity at 72 h, 300 µM [26]: 19%; Ratio [23]: 100 - 1000
5 | Cc1c(C)c2c(c(C)c1OC(=O)CCC(=O)NC1CC(C)(C)N([O])C1(C)C)CC[C@@](C)(CCC[C@H](C)CCC[C@H](C)CCCC(C)C)O2 (stereo partly drawn) | 227 | 21% | 29% | 12% | 95 µM | 55 µM | > 300 µM | > 300 µM | 69 µM | 87 µM | > 300 µM | > 300 µM | – | 38% | 30% | 100 - 1000 | 100 - 1000 | 100 - 1000 | 100 - 1000 | 100 - 1000 | fold induction at 2 h, 30000 µM [1]: 0.8; inhibition at 300 µM [16]: 34%; cytotoxicity at 72 h, 300 µM [26]: 38%; Ratio [23]: 100 - 1000
